Measured values as given in US20240294478A1, “ANTI-CANCER COMPOUNDS AND METHODS OF USE” (YALE UNIVERSITY, priority 2021, published 2024).
Like-named read-outs stand apart in the source and are kept apart here.

Key:
[1] = system: LN229 MGMT+/MMR+ cells; experiment: Short-term cell viability assay, LN229 MGMT+/MMR+; assay type: cell-based; conditions: Homo sapiens, read-out: IC50 against LN229 cell lines, MGMT+ MMR+
Method: (§1) LN229 MGMT- and MGMT+ cell lines were a gift from B. Kaina (Johannes Gutenberg University Mainz, Mainz, Germany) and grown in Gibco® Duilbecco's Modified Eagle Medium with 10% fetal bovine serum (DMEM). For each compound tested, the relationship between MGMT status and MMR status and compound activity, in terms of IC50 values ([…]), was determined by the following method. On day 1, LN229 isogenic cells of varying MGMT and MMR status were seeded in 96 well format at a density of 2000 cells/well in 100 μL of DMEM media and allowed to adhere overnight. On day 2, a drug master plate was made with 100×the desired maximal concentration of test compound and serially diluted by 2 until 100×the minimal desired concentration, with one DMSO control. Then daughter plates were created with varied concentrations from 3-times the minimal concentration to 3-times the maximal desired concentration. Afterwards, 50 μL of daughter drug plate was added to 100 μL of the seeded cells for a final concentration of 1×in triplicate. Cells were allowed to grow for 6 days. On day 7, the cells were fixed, and stained with Hoechst nuclear dye and imaged to determine growth inhibition.
(§2) For each compound tested, the relationship between MGMT status and MMR status and compound activity, in terms of IC50 values (in μM), was determined. In addition, for each compound, the therapeutic index (TI) was calculated, according to the equation MGMT TI=IC50 (MGMT+/MMR+) divided by IC50 (MGMT−/MMR+). The T1 indicates the efficacy of a compound in treating the targeted MGMT-cancer cells as compared to potential for the same compound to damage, or have adverse effects against, normal cells which are MGMT+cells, The higher the value of the TI, the safer the compound is. […] MMR RI (resistance index)=IC50 (MGMT−/MMR−) divided by IC50 (MGMT−/MMR+). The higher the value of the RI, the less likely that resistance to the compound will develop.
(§3) Short-term Cell Viability Assay. Cells were seeded in 96-well plates at 1000 or 2000 cells/well and allowed to adhere at 23° C. for 60 min and then incubated overnight at 37° C. Cells were treated with indicated concentrations of compounds in triplicate for 4-6 days prior to fixation with 3.7% paraformaldehyde and nuclear staining with 1 μg/mL Hoechst 33342 dye. Cells were imaged on a Cytation 3 imaging reader (BioTek) and quantified using CellProfiler software. For in vitro short-term growth delay experiments, IC50 values were determined from the nonlinear regression equation, [inhibitor] vs normalized response with variable slope.

[2] = system: LN229 MGMT−/MMR− cells; experiment: Short-term cell viability assay, LN229 MGMT-/MMR- (shRNA targeting MSH2); assay type: cell-based, human; conditions: for IC50: Homo sapiens, read-out: IC50 against LN229 cell lines, MGMT− MMR−; for activity in MGMT−/MMR− cells, in words: LN229 MGMT−/MMR−; for MGMT− RI (resistance index): IC50 (MGMT−/MMR−) divided by IC50 (MGMT−/MMR+)
Method: as §1
For each compound tested, the relationship between MGMT status and MMR status and compound activity, in terms of IC50 values (in μM), was determined. In addition, for each compound, the therapeutic index (TI) was calculated, according to the equation MGMT TI=IC50 (MGMT+/MMR+) divided by IC50 (MGMT−/MMR+). […] MMR RI (resistance index)=IC50 (MGMT−/MMR−) divided by IC50 (MGMT−/MMR+).
as §3, with “Cells were treated with indicated concentrations of compounds in triplicate for 4-6 days prior to fixation with 3.7% paraformaldehyde and nuclear staining with 1 μg/mL Hoechst 33342 dye.” left out

[3] = system: LN229 MGMT−/MMR+ cells; experiment: Short-term cell viability assay, LN229 MGMT-/MMR+; assay type: cell-based, human; conditions: for IC50: Homo sapiens, read-out: IC50 against LN229 cell lines, MGMT− MMR+; for TI / RI, in words: LN229 isogenic lines; for MGMT− TI (therapeutic index): IC50 (MGMT+/MMR+) divided by IC50 (MGMT−/MMR+)
Method: as §1, §2, §3

[4] = system: MGMT−/MMR− cells; experiment: IR alkaline comet assay, LN229 MGMT-/MMR-, time course; assay type: cell-based, human; conditions: time points 2-24 h
Method: The IR alkaline comet assay, adapted for ICL detection was performed to determine if ICLs were formed in MGMT-cells treated with KL-50. In this assay, cells were sequentially exposed to genotoxins and ionizing radiation, and then analyzed by single cell alkaline gel electrophoresis. Attenuation of the IR-induced comet tail is indicative of ICL formation.
IR Alkaline Comet Assay. This assay was performed utilizing the CometAssay™ Kit (Trevigen) according to the alkaline assay protocol, with the addition of slide irradiation post-lysis. Cells were trypsinized, washed with 1×PBS, added to melted Comet LMAgarose (Trevigen), and spread on Trevigen CometSlides at a density of 1000 cells per sample in 50 μL. Lysis solution (Trevigen) with 10% DMSO was added overnight at 4° C. Slides were removed from lysis buffer and irradiated to 0 or 10 Gy using an XRAD 320 X-Ray System (Precision X-Ray) at 320 kV, 12.5 mA, and 50.0 cm SSD, with a 2 mm Al filter and 20 cm×20 cm collimator. Slides were then placed in alkaline buffer (200 mM NaOH, 1 mM EDTA) for 45 min, followed by electrophoresis in 850 mL alkaline buffer for 45 min at 4° C. Slides were washed and stained with SYBR gold (Invitrogen) per Trevigen assay protocol. Slides were imaged on a Cytation 3 imaging reader (BioTek), and comets were analyzed using CometScore 2.0 software (TriTek).

[5] = system: LN229 MGMT+/MMR− cells; experiment: Short-term cell viability assay, LN229 MGMT+/MMR- (shRNA targeting MSH2); assay type: cell-based; conditions: Homo sapiens
Method: as §1, §2, §3

[6] = system: four isogenic LN229 glioblastoma cell lines; experiment: Short-term cell viability assays, statements across the isogenic lines; assay type: cell-based, human; conditions: regardless of MMR status
Method: as §1, §2, §3

[7] = system: MGMT− LN229 cells; experiment: Clonogenic survival assay, LN229 MGMT- cells; assay type: cell-based, human; conditions: isogenic cells lacking MMR
Method: (§4) In vitro clonogenic survival assays (CSAs) were performed using four isogenic LN229 glioblastoma cell lines.
(§5) Clonogenic Cell Survival Assay. Cells of each line were pretreated with the test drug in culture for 48-72 hours at the specified dilutions. The cells were then immediately seeded in six-well plates in triplicate at three-fold dilutions, ranging from 9000 to 37 cells per well. Depending on colony size, these plates were kept in the incubator for 10 to 14 days. After incubation, colonies were washed in phosphate-buffered saline (PBS) and stained with crystal violet. Colonies were counted by hand. Counts were normalized to plating efficiency of the corresponding treatment condition.

[8] = system: MGMT+ LN229 cells; experiment: Clonogenic survival assay, LN229 MGMT+ cells; assay type: cell-based, human; conditions: irrespective of MMR status
Method: as §4, §5

[9] = LN-229, Table II, read-out: IC50 against LN229 cell lines, MGMT MMR−
[10] = LN-229, 144 h, Table 1, 6 days growth, Hoechst nuclear count
[11] = LN-229, 144 h, Table 1, 6 days growth
[12] = LN-229, 144 h, Table 1, 6 days growth, read-out: IC50 against LN229 cell lines, MGMT+ MMR−

| Compound | IC50 ([1]; LN-229, Table II) [µM] | IC50 ([2]; LN-229, Table II) [µM] | activity in MGMT−/MMR− cells, in words [2] | MGMT− RI (resistance index) ([2]; Table II) | IC50 ([3]; LN-229, Table II) [µM] | TI / RI, in words [3] | MGMT− TI (therapeutic index) ([3]; Table II) | DNA damage in unirradiated samples [4] | DNA mobility after IR, rate of ICL formation [4] | IC50 [5, 9] [µM] | activity in MGMT+ cells, in words [6] | IC50 [1, 10] [µM] | IC50 [2, 11] [µM] | IC50 [3, 11] [µM] | IC50 [5, 12] [µM] | clonogenic survival, activity in MMR− cells [7] | clonogenic survival, activity in MGMT+ cells [8] |
| --- | --- | --- | --- | --- | --- | --- | --- | --- | --- | --- | --- | --- | --- | --- | --- | --- | --- |
| NC(=O)c1ncn2c(=O)n(CCCl)nnc12 [MTZ, 3-(2-chloroethyl)-4-oxoimidazo[5,1-d][1,2,3,5]tetrazine-8-carboxamide, reference compound] | 61.9 ± 4.7 | 6.9 ± 0.7 | effective against MGMT−/MMR− cells | 0.8 | 9 ± 0.4 | poor TI | 6.9 | maximal damage at 2 h | reduced DNA mobility within 2 h | 50.8 ± 4.2 | – | – | – | – | – | – | – |
| CC(=O)N(CCF)/N=N/c1[nH]cnc1C(N)=O [Compound E3, (E)-5-(3-acetyl-3-(2-fluoroethyl)triaz-1-en-1-yl)-1H-imidazole-4-carboxamide] | – | – | exquisite sensitivity | – | – | – | – | – | – | – | limited activity | > 100 | 46 ± 4 | 40 ± 2 | > 100 | – | – |
| NC(=O)c1nc[nH]c1/N=N/N(CCF)C(=O)OCc1ccccc1 [Compound E4] | – | – | – | – | – | – | – | – | – | – | – | 14 ± 1 | 17 ± 1 | 8 ± 1 | 11 ± 1 | – | – |
| O=NN(CCCl)C(=O)NC1CCCCC1 [CCNU, 1-(2-chloroethyl)-3-cyclohexyl-1-nitrosourea, reference compound] | 21.6 ± 3.2 | 4.2 ± 0.2 | effective against MGMT−/MMR− cells | 0.7 | 6.3 ± 0.3 | poor TI | 3.4 | – | – | 26.8 ± 7.3 | – | – | – | – | – | effective in MMR− cells | cytotoxic to MGMT+cells |
